# What was measured:
# [1] = molecular target: T1, Protein deacetylase HDAC6 (Homo sapiens, UniProt Q9UBN7); experiment: Inhibition of HDAC6 (unknown origin)
# T1 sequence (Q9UBN7 whole entry): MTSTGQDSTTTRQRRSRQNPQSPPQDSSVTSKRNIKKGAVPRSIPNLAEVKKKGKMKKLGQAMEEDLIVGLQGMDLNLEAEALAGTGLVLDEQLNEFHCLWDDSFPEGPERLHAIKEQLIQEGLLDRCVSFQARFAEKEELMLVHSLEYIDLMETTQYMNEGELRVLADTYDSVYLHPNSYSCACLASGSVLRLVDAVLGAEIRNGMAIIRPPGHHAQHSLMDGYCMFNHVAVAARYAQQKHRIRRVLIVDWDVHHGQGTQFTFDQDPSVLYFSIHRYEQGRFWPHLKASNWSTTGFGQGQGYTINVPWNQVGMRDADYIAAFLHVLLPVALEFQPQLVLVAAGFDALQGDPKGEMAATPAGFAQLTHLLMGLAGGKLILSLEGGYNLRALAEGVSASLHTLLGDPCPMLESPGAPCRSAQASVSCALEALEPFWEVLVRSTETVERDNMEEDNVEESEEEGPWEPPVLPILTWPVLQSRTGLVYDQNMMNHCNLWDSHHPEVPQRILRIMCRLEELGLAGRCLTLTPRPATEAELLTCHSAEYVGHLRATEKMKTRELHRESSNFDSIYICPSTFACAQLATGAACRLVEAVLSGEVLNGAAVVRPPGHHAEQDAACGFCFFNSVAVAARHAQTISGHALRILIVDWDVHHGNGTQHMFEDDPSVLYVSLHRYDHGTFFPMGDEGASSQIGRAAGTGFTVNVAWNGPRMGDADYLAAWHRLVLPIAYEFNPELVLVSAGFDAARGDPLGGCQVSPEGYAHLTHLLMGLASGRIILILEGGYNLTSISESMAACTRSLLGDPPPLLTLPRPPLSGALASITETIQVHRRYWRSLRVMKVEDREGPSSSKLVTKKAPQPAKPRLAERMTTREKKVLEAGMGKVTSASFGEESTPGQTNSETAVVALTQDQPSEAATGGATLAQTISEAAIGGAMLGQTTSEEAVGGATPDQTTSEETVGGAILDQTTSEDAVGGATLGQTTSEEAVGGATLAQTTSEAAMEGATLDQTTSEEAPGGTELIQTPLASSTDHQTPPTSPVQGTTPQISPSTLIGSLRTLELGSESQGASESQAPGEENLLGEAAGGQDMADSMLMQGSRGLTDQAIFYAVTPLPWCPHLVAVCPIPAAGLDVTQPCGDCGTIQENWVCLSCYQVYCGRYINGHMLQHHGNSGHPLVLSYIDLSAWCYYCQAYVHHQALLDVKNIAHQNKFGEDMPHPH
# [2] = test system: N2a; experiment: Antialzheimer activity in mouse N2a cells overexpressing hAPP assessed as reduction in human amyloid beta 40 level at 1 to 5 uM incubated for 24 hrs by ELISA relative to control; format: functional; parameters: scale not given: the % may be the effect or the level left; conditions: dose 1-5 µM
# [3] = test system: N2a; experiment: Antialzheimer activity in mouse N2a cells overexpressing hAPP assessed as reduction in human amyloid beta 42 level at 1 to 5 uM incubated for 24 hrs by ELISA relative to control; format: functional; parameters: scale not given: the % may be the effect or the level left; conditions: dose 1-5 µM
# [4] = Antialzheimer activity in rat Primary cortical neurons assessed as reduction in amyloid beta 40 level incubated for 24 hrs by ELISA relative to control; format: functional, Cortical neurone; parameters: scale not given: the % may be the effect or the level left
# [5] = Lipophilicity, logD of the compound at 37 degreeC; format: physicochemical; conditions: octanol/water
# [6] = Solubility of compound in PBS at pH 7.4 at 37 degreeC measured after 24 hrs; format: physicochemical
# [7] = Solubility of compound in HCl at pH 1.2 at 37 degreeC measured after 24 hrs; format: physicochemical
# [8] = Apparent permeability across apical to basolateral side in human Caco-2 cells; format: ADME, cell-based
# [9] = Apparent permeability across basolateral to apical side in human Caco-2 cells; format: ADME, cell-based
# [10] = Stability in human plasma assessed as half life; format: ADME, cell-free
# [11] = Stability in mouse plasma assessed as half life; format: ADME, cell-free
# [12] = Stability in porcine plasma assessed as half life; format: ADME, cell-free, Sus scrofa; conditions: pig
# [13] = Stability in rat plasma assessed as half life; format: ADME, cell-free
# [14] = Stability in human liver microsomes assessed as half life; format: ADME, Microsome
# [15] = Stability in dog liver microsomes assessed as half life; format: ADME, Canis lupus familiaris, Microsome
# [16] = Stability in rat liver microsomes assessed as half life; format: ADME, Microsome
# [17] = Cmax in mouse at 400 mg/kg, ip; format: ADME, organism-based; parameters: dose 400 mg/kg, route ip; conditions: in vivo
# [18] = Tmax in mouse at 400 mg/kg, ip; format: ADME, organism-based; conditions: in vivo
# [19] = AUC in mouse at 400 mg/kg, ip; format: ADME, organism-based; parameters: dose 400 mg/kg, route ip; conditions: in vivo
# [20] = Half life in mouse at 400 mg/kg, ip; format: ADME, organism-based; conditions: in vivo
# [21] = Clearance in mouse at 400 mg/kg, ip; format: ADME, organism-based; conditions: in vivo
# [22] = molecular target: T2, Histone deacetylase 8 (Homo sapiens, UniProt Q9BY41); experiment: Inhibition of human HDAC8 incubated for 90 mins by fluorescence assay
# T2 sequence (Q9BY41 whole entry): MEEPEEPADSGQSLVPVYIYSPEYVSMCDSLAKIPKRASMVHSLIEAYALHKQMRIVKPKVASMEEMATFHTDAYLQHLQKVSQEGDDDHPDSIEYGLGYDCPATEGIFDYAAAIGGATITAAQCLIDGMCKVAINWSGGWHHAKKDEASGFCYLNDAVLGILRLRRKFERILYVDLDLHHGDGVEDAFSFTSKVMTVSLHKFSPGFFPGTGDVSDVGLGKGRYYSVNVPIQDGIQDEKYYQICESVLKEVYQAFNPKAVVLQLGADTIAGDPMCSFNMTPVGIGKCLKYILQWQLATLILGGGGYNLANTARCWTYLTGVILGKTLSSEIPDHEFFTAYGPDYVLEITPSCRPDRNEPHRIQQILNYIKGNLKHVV
# [23] = molecular target: T3, Histone deacetylase 1 (Homo sapiens, UniProt Q13547); experiment: Inhibition of human HDAC1
# T3 sequence (Q13547 whole entry): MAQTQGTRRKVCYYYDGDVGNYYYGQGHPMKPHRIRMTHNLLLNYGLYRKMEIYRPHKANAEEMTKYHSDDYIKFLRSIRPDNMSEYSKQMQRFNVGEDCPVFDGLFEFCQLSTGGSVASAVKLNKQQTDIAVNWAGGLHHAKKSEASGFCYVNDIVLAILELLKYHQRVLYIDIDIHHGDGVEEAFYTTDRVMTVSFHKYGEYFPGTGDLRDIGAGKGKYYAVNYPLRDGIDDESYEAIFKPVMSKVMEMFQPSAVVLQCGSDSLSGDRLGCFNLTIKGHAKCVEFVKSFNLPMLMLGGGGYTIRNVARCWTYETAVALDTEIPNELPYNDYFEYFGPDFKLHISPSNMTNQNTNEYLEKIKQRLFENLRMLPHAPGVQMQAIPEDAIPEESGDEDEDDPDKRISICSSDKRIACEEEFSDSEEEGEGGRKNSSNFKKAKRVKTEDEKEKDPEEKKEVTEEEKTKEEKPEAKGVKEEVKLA
# [24] = molecular target: T1, Protein deacetylase HDAC6; experiment: Inhibition of human HDAC6
# [25] = molecular target: T3, Histone deacetylase 1; experiment: Inhibition of human HDAC1 using FAM-labeled acetylated peptide as substrate incubated for 17 hrs by fluorescence based assay
# [26] = molecular target: Histone deacetylase 2 (Homo sapiens, UniProt Q92769); experiment: Inhibition of human HDAC2 using FAM-labeled acetylated peptide as substrate incubated for 17 hrs by fluorescence based assay
# Sequence of Histone deacetylase 2 (Q92769 whole entry): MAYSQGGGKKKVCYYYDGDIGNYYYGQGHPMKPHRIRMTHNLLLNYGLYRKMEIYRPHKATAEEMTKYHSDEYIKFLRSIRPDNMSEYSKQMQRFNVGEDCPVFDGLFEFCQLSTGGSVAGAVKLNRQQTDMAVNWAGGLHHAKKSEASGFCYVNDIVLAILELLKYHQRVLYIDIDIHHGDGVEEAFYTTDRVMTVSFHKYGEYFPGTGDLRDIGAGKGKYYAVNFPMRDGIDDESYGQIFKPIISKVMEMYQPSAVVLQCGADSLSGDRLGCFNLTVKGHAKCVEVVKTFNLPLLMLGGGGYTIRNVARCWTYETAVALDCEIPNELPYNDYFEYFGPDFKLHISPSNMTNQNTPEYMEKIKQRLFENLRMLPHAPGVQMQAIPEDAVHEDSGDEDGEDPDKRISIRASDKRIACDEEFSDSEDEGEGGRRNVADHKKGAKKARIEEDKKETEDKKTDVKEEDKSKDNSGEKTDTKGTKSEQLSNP
# [27] = molecular target: T2, Histone deacetylase 8; experiment: Inhibition of human HDAC8 using FAM-labeled acetylated peptide as substrate incubated for 17 hrs by fluorescence based assay
# [28] = molecular target: T1, Protein deacetylase HDAC6; experiment: Inhibition of human HDAC6 using FAM-labeled acetylated peptide as substrate incubated for 17 hrs by fluorescence based assay
# [29] = molecular target: T4, Polyamine deacetylase HDAC10 (Homo sapiens, UniProt Q969S8); experiment: Inhibition of human HDAC10 using FAM-labeled acetylated peptide as substrate incubated for 17 hrs by fluorescence based assay
# T4 sequence (Q969S8 whole entry): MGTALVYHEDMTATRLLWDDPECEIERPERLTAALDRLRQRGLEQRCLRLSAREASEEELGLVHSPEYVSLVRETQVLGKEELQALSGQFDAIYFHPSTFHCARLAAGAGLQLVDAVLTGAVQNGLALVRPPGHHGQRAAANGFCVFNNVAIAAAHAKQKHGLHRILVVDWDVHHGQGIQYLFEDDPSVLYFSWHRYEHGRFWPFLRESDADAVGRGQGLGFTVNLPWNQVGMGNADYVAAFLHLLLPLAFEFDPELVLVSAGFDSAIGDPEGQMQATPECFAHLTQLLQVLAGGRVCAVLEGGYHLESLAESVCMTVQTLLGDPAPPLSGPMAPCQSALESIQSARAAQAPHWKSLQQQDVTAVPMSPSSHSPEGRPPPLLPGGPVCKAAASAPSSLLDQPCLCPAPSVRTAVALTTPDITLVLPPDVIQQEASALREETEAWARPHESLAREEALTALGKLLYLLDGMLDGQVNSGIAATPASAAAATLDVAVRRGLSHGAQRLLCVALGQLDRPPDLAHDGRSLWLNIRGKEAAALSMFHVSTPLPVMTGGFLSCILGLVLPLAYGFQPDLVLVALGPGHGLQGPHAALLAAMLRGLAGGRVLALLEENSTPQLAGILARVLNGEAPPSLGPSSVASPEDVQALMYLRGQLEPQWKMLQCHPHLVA
# [30] = molecular target: Histone deacetylase 3 (Homo sapiens, UniProt O15379); experiment: Inhibition of human HDAC3 using FAM-labeled acetylated peptide as substrate incubated for 17 hrs by fluorescence based assay
# Sequence of Histone deacetylase 3 (O15379 whole entry): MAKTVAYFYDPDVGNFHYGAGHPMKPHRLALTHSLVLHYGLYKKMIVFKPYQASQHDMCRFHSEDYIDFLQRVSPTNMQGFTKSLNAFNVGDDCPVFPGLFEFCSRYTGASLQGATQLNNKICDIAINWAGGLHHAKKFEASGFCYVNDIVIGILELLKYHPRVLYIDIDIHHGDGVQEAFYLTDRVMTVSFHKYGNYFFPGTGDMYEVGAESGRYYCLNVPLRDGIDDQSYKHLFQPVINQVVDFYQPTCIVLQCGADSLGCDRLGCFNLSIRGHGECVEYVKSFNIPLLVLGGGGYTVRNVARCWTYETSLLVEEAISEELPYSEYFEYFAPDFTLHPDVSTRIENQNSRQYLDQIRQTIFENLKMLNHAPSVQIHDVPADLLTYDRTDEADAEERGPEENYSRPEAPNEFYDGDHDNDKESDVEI
# [31] = molecular target: Histone deacetylase 4 (Homo sapiens, UniProt P56524); experiment: Inhibition of human recombinant HDAC4 incubated for 17 hrs
# Sequence of Histone deacetylase 4 (P56524 whole entry): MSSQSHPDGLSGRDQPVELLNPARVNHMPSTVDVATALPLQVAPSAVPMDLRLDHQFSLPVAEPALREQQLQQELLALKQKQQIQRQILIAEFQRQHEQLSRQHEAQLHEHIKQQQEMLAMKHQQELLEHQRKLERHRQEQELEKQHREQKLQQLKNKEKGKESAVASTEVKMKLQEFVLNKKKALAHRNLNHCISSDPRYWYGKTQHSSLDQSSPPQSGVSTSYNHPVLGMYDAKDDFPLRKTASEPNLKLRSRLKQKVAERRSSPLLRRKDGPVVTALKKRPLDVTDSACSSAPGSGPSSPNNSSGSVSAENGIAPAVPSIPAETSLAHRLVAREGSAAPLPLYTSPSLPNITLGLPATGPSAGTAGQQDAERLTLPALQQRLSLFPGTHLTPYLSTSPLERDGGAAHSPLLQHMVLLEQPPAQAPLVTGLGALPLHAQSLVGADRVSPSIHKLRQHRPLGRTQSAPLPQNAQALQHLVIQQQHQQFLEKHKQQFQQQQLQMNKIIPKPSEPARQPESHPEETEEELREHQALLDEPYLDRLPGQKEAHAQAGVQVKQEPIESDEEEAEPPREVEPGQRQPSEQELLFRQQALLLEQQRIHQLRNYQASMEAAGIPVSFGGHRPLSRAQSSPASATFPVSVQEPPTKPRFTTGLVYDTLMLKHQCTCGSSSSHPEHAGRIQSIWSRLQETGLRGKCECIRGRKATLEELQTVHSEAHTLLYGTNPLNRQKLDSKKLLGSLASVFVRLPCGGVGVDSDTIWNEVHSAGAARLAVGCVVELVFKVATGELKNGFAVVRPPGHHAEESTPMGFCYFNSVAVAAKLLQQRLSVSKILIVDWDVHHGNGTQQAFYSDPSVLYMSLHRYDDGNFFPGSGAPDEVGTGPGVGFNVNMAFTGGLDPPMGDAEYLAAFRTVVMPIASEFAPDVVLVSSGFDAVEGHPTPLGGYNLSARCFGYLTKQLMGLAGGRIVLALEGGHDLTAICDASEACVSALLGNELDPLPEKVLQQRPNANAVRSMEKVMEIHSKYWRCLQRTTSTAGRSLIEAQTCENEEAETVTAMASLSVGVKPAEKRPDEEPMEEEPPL
# [32] = molecular target: T5, Histone deacetylase 7 (Homo sapiens, UniProt Q8WUI4); experiment: Inhibition of human recombinant HDAC7 incubated for 17 hrs
# T5 sequence (Q8WUI4 whole entry): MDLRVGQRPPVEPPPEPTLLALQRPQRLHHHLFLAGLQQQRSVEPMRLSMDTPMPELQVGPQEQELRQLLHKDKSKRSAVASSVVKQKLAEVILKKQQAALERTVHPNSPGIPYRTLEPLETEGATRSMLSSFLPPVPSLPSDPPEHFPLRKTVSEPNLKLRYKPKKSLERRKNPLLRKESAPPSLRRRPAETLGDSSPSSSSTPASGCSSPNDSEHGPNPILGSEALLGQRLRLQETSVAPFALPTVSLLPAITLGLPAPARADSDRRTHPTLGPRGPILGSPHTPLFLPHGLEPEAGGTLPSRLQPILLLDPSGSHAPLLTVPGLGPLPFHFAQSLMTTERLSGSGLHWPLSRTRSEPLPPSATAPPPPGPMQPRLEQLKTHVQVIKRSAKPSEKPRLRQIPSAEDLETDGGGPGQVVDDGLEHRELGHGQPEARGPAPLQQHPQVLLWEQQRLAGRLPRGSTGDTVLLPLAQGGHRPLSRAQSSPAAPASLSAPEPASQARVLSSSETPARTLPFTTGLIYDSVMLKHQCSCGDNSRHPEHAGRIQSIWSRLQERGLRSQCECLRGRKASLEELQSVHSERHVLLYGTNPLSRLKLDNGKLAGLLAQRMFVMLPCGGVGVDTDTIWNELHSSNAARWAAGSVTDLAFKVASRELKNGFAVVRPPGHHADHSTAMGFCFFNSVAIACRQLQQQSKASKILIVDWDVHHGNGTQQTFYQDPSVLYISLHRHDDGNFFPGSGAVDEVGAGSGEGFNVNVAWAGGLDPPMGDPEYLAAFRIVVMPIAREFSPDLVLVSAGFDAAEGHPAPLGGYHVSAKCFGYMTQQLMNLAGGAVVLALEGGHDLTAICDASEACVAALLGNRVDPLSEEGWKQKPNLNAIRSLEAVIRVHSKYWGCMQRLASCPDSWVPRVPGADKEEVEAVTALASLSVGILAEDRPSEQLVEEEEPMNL
# [33] = molecular target: T6, Histone deacetylase 11 (Homo sapiens, UniProt Q96DB2); experiment: Inhibition of human recombinant HDAC11 incubated for 17 hrs
# T6 sequence (Q96DB2 whole entry): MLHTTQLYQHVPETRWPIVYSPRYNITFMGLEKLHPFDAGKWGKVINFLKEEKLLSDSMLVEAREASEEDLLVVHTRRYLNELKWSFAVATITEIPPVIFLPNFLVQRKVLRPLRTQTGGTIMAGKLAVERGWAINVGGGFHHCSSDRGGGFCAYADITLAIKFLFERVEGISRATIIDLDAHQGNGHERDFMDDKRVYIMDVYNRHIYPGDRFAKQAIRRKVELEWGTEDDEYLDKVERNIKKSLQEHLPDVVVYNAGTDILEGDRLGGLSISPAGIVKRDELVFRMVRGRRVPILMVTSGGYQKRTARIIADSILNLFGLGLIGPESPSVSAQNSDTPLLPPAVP
smiles,measurement,setting,value
O=C(CS)NCCCCCC(=O)Nc1cccc2cccnc12,IC50,[1],0.02 µM
same,Activity,[2],20%
same,Activity,[3],20%
same,Activity,[4],20%
same,logD,[5],2.64
same,solubility at 24 h,[6],150 µg/mL
same,solubility at 24 h,[7],1000 µg/mL
same,Papp A→B,[8],15 ×10⁻⁶ cm/s
same,Papp B→A,[9],24.7 ×10⁻⁶ cm/s
same,half-life,[10],1.32 h
same,half-life,[11],0.967 h
same,half-life,[12],1.15 h
same,half-life,[13],1.53 h
same,half-life,[14],1.38 h
same,half-life,[15],1.2 h
same,half-life,[16],1.1 h
same,Cmax,[17],1810 nM
same,Tmax,[18],0.5 h
same,AUC,[19],4.97 µM·h
same,half-life,[20],2.2 h
same,CL/F,[21],67.5 mL/min
O=C(CS)NCCCCCC(=O)Nc1ccccc1,IC50,[22],200 µM
O=C(/C=C/c1ccccc1Cl)NO,IC50,[23],2.2 µM
same,IC50,[24],0.1 µM
N[C@@H](Cc1c[nH]c2ccccc12)C(=O)Nc1ccccc1-c1ccc(NC(=O)CCCCCNC(=O)CS)cc1,IC50,[25],7.09 µM
same,IC50,[26],> 30 µM
same,IC50,[27],11.3 µM
same,IC50,[28],0.66 µM
same,IC50,[29],> 30 µM
same,IC50,[30],4.33 µM
Nc1ccc(F)cc1NC(=O)c1ccc(CNC(=O)/C=C/c2cccnc2)cc1,IC50,[31],> 30 µM
same,IC50,[32],> 30 µM
same,IC50,[33],0.432 µM
